Data taken from US20240132513A1, “BENZAZEPINE DERIVATIVES, COMPOSITIONS, AND METHODS FOR TREATING COGNITIVE IMPAIRMENT” (AGENEBIO, INC., priority 2022, published 2024).
Read-outs that look alike come from different tables or passages of the source.

Tests used:
α5β3γ2 GABAA R = α5β3γ2 GABAA R (Homo sapiens, UniProt P18507+P31644); assay: Binding activity on GABAA R: inhibition of [3H]Ro15-1788 binding, α5 containing receptor
Procedure: Tissue culture and Membrane Preparation: The binding was performed on Ltk cells stably expressing GABAA R: […], α2β3γ2, α3β3γ2 and α5β3γ2 (provided by Merck Co., NJ, USA). Cells were seeded in 100 mm culture plates in DMEM/F12 medium containing 10% serum and antibiotics in 5% CO2 and allowed to grow for 1-2 days. GABAAR expression was then induced by dexamethasone as follows: 0.5 μM for 1 day for α5 containing and 2 μM for 3 days for α1, α2 and α3 containing GABAARs. After induction, cells were collected by scraping into Dulbecco's Phosphate buffered saline (DPBS, pH 7.4, Invitrogen, Carlsbad, CA, USA) and centrifuged at 150×g for 10 min. The pellet was washed twice by re-suspension and centrifugation. The cell pellets from at least 5 different preps were combined, suspended in the binding assay buffer (50 mM KH2PO4; 1 mM EDTA; 0.2 M KCl, pH 7.4) and membranes prepared by sonication (3-5 times, 30 sec) using Branson Sonifier 150 (G. Heinmann, Germany). Protein content was determined using BCA assay (Bio-Rad Labs, Reinach, Switzerland) with Bovine Serum Albumin (Sigma Aldrich, St. Louis, MO, USA) as the standard. Aliquots were prepared and stored at −20° C. for further use in binding assays.
Ligand Binding: Saturation binding curves were obtained by incubating membranes with increasing concentrations (0.01-8 nM) of [^3H]Rol5-1788 (Flumazepil, 75-85 Ci/mmol, PerkinElmer, MA, USA), with nonspecific binding measured in the presence of 10 μM diazepam.
All binding assays were performed for 1 h at 4° C. in assay buffer. The total assay volume was 0.5 ml containing 0.2 mg/ml protein for α5 and 0.4 mg/ml for α1, α2, and α3 containing GABAAR membranes. Incubations were terminated by filtration through GF/B filters using a 24-Cell Harvestor (Brandel, Gaithersburg, MD, USA) followed by 3 washes with ice-cold assay buffer. Filters were transferred to scintillation vials, 5 ml scintillation liquid added, vortex-mixed and kept in dark. Next day, radioactivity was obtained using a scintillation counter (Beckman Coulter, Brea, CA, USA). All assays were performed in triplicate.
Data Analyses: Saturation and inhibition curves were obtained using GraphPad Prism software (GraphPad Software, Inc., CA, USA).

GABAA R (α5β2γ2) = target: T1, GABAA R (α5β2γ2) (Homo sapiens, UniProt P18507+P31644); assay: Positive allosteric modulator activity: potentiation of EC20 GABA current in oocytes; assay type: cell-based
T1 construct: expressed in transfected cells
Procedure: On day 1, 1 ng/32 nL of GABAA α5β2γ2 cDNA was injected into one oocyte. Test starts on day 2. The cDNA injected to the oocytes was a mix of alpha, beta and gamma, their ratio is 1:1:10 (by weight) and the total weight of the mixed 3 subunits to be injected in one oocyte was 1 ng in 32 nl volume. The injected oocytes can also be tested on day 3. In such case, the cDNA amount injected to the oocytes should be reduced by 20%.
Compounds of the present disclosure were tested using the following procedures.
8 oocytes were placed in 8 chambers of OpusXpress and superfused with Modified Barth's Saline (MBS) at 3 mL/min. Glass electrodes back-filled with 3M KCl (0.5-3 megaohms) were used. Membrane potential of oocytes was voltage-clamped at −60 mV. • 2).
Control Test (Diazepam or Methyl 3,5-Diphenylpyridazine-4-Carboxylate) • 1). New oocytes was used to run new test. • 2). […] Oocytes were washed with MBS for 5-10 min. • 4). […] Itest was divided by IGABA to obtain potentiation (%).
Test Compounds at Multiple Doses • 1). Repeat the above steps 1), 2) and 3) in the control test. • 2). […] Divide Itest by IGABA to obtain potentiation (%). • 3). Discard all tested oocytes, new oocytes were used and the above steps 1) and 2) were repeated to test second concentration of the same compound. Each oocyte was used for only one concentration test for a single test compound. The steps were repeated for other test compounds.

[1] = ranges of the column heads, [3H]Ro15-1788, Ltk cell membranes
[2] = read-out: GABA α5 Functional Data: potentiation
[3] = read-out: GABA α5 Functional Data: potentiation, @ 100 nM, EC20 GABA, ranges of the column heads

T1 sequence (P31644 32-462): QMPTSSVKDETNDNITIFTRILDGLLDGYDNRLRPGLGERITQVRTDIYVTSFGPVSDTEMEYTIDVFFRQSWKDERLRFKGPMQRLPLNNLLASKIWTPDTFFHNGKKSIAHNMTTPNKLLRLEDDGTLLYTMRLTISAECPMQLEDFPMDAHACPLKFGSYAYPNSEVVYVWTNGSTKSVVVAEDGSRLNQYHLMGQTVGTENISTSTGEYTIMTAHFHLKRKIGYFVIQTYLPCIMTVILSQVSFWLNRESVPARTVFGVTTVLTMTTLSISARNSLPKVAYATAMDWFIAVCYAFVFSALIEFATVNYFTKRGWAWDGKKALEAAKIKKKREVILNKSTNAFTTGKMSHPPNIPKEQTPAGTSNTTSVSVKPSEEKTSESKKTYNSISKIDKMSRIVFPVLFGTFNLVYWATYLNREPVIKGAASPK
T1 sequence (P47870 25-512 partner limits assumed): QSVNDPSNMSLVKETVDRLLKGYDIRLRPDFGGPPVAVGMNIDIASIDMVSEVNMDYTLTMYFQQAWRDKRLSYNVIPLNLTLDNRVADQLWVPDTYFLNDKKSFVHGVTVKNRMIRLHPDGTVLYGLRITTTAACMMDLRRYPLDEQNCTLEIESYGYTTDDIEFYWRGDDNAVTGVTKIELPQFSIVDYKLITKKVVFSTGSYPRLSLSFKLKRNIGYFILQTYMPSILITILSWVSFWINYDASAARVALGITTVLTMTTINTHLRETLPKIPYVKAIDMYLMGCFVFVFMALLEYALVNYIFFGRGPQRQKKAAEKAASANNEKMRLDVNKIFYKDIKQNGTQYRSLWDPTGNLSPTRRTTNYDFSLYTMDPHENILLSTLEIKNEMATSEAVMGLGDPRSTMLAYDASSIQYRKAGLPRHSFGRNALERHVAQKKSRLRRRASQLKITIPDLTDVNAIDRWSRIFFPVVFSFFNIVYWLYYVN
T1 sequence (P18507 40-475): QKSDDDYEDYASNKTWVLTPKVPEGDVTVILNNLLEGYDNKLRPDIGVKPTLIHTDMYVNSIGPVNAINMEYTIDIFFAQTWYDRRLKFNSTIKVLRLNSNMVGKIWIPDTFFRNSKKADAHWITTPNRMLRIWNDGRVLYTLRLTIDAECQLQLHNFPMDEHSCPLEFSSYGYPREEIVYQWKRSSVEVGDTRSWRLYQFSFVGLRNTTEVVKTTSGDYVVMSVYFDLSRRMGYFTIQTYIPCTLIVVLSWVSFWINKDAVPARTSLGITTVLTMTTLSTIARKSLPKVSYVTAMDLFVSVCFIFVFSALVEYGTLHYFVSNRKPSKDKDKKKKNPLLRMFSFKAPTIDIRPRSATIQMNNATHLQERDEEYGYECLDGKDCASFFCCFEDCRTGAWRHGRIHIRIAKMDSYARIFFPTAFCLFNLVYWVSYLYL
Chain of α5β3γ2 GABAA R (P31644 32-462): as the sequence (P31644 32-462) above
Chain of α5β3γ2 GABAA R (P28472 26-473 partner): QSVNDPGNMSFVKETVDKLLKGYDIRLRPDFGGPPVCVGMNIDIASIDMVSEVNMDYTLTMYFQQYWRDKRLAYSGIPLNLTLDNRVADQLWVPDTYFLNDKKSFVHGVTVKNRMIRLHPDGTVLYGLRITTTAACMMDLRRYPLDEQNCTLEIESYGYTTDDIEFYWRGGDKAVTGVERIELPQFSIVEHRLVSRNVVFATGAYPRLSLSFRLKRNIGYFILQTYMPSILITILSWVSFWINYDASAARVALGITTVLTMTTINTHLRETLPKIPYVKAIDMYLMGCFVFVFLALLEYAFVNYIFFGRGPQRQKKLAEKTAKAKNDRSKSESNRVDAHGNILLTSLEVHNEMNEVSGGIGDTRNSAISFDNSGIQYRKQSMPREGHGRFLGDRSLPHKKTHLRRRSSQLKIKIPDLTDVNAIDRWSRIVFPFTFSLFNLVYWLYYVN
Chain of α5β3γ2 GABAA R (P18507 40-475): as the sequence (P18507 40-475) above

Compound | Ki (α5β3γ2 GABAA R) | other results
COc1ccc2c(c1)-c1c(cnn1Cc1ccccc1)Cc1c(-c3nc(C)no3)ncn1-2 [Compound 7] |  | Ki (α5β3γ2 GABAA R; [1]): < 100 nM; activation at 0.1 µM (GABAA R (α5β2γ2); [2]): 20 to 50%
COc1ccc2c(c1)-c1[nH]ncc1Cc1c(-c3nc(C)no3)ncn1-2 [Compound 9] |  | Ki (α5β3γ2 GABAA R; [1]): < 100 nM; activation at 0.1 µM (GABAA R (α5β2γ2); [2]): 5 to 20%
COc1ccc2c(c1)-c1[nH]ncc1Cc1c(-c3nc(C(C)C)no3)ncn1-2 [Compound 10] | < 100 nM | activation at 0.1 µM (GABAA R (α5β2γ2); [3]): 20 to 50%
COc1ccc2c(c1)-c1[nH]ncc1Cc1c(-c3nc(C(C)(C)C)no3)ncn1-2 [Compound 11] | < 100 nM | activation at 0.1 µM (GABAA R (α5β2γ2); [3]): 5 to 20%
COc1ccc2c(c1)-c1[nH]ncc1Cc1c(C3=N[C@H](c4ccccc4)CO3)ncn1-2 [Compound 14] | < 100 nM | activation at 0.1 µM (GABAA R (α5β2γ2); [3]): 5 to 20%
COc1ccc2c(c1)-c1nn(C)cc1Cc1c(-c3nc(C)no3)ncn1-2 [Compound 20] | < 100 nM | activation at 0.1 µM (GABAA R (α5β2γ2); [3]): 5 to 20%
COc1ccc2c(c1)-c1nn(Cc3ccccc3F)cc1Cc1c(-c3nc(C)no3)ncn1-2 [Compound 21] | < 100 nM | activation at 0.1 µM (GABAA R (α5β2γ2); [3]): 5 to 20%
COc1ccc2c(c1)-c1nn(Cc3ccc(F)cc3)cc1Cc1c(-c3nc(C)no3)ncn1-2 [Compound 23] | < 100 nM | activation at 0.1 µM (GABAA R (α5β2γ2); [3]): 5 to 20%
Cc1noc(-c2ncn3c2Cc2cn[nH]c2-c2cc(Cl)ccc2-3)n1 [Compound 33] | < 100 nM | activation at 0.1 µM (GABAA R (α5β2γ2); [3]): 20 to 50%
CC(C)c1noc(-c2ncn3c2Cc2cn[nH]c2-c2cc(Cl)ccc2-3)n1 [Compound 34] | < 100 nM | activation at 0.1 µM (GABAA R (α5β2γ2); [3]): 20 to 50%
CC(C)(C)c1noc(-c2ncn3c2Cc2cn[nH]c2-c2cc(Cl)ccc2-3)n1 [Compound 35] | < 100 nM | activation at 0.1 µM (GABAA R (α5β2γ2); [3]): 20 to 50%
COc1ccc2c(c1)-c1[nH]ncc1Cc1c(C#Cc3ccnn3C)ncn1-2 [Compound 39] |  | Ki (α5β3γ2 GABAA R; [1]): < 100 nM; activation at 0.1 µM (GABAA R (α5β2γ2); [2]): 20 to 50%
COc1ccc2c(c1)-c1nn(Cc3ccccc3)cc1Cc1c(-c3nc(C(C)C)no3)ncn1-2 [Compound 44] | < 100 nM | activation at 0.1 µM (GABAA R (α5β2γ2); [3]): 20 to 50%
COc1ccc2c(c1)-c1[nH]ncc1Cc1c(-c3nc(C(F)(F)F)no3)ncn1-2 [Compound 45] | < 100 nM | activation at 0.1 µM (GABAA R (α5β2γ2); [3]): 20 to 50%
COc1ccc2c(c1)-c1nn(C)cc1Cc1c(-c3nc(C(C)C)no3)ncn1-2 [Compound 46] | < 100 nM | activation at 0.1 µM (GABAA R (α5β2γ2); [3]): 5 to 20%
COc1ccc(C#Cc2ncn3c2Cc2cn[nH]c2-c2cc(Cl)ccc2-3)cn1 [Compound 52] | < 100 nM | activation at 0.1 µM (GABAA R (α5β2γ2); [3]): 5 to 20%
Clc1ccc2c(c1)-c1[nH]ncc1Cc1c(-c3ncco3)ncn1-2 [Compound 55] | < 100 nM | activation at 0.1 µM (GABAA R (α5β2γ2); [3]): 5 to 20%
CCC(C)(OC)c1nc(-c2ncn3c2Cc2cn(C)nc2-c2cc(OC)ccc2-3)no1 (stereo not shown) [Compound 353] |  | Ki (α5β3γ2 GABAA R; [1]): < 100 nM
COc1ccc2c(c1)-c1nn(C)cc1Cc1c(-c3noc(C4(OC)CCOC4)n3)ncn1-2 (stereo not shown) [Compound 354] | < 100 nM | 
COc1ccc2c(c1)-c1nn(C)cc1Cc1c(-c3noc(C4(OC)CCCC4)n3)ncn1-2 [Compound 355] | < 100 nM | 
COc1ccc2c(c1)-c1nn(C)cc1Cc1c(-c3noc(C4(F)CCOC4)n3)ncn1-2 (stereo not shown) [Compound 356] | < 100 nM | 
CCOC1(c2nc(-c3ncn4c3Cc3cn(C)nc3-c3cc(OC)ccc3-4)no2)CC1 [Compound 357] | < 100 nM | 
CC(=O)N(C)Cc1coc(-c2ncn3c2Cc2cn(C)nc2-c2cc(Cl)ccc2-3)n1 [Compound 358] | < 100 nM | 
COc1ccc2c(c1)-c1nn(C)cc1Cc1c(-c3noc(COC(F)(F)F)n3)ncn1-2 [Compound 359] | < 100 nM | 
COc1ccc2c(c1)-c1nn(C)cc1Cc1c(-c3noc(Cn4cccc4)n3)ncn1-2 [Compound 360] | < 100 nM | 
COc1ccc2c(c1)-c1nn(C)cc1Cc1c(-c3noc(Cn4cccn4)n3)ncn1-2 [Compound 361] | < 100 nM | 
Clc1ccc2c(c1)-c1nn(CC3CCCO3)cc1Cc1c(-c3noc(C4CCOCC4)n3)ncn1-2 (stereo not shown) [Compound 362] | < 100 nM | 

Compound | Ki (α5β3γ2 GABAA R) | other results
COc1ccc2c(c1)-c1nn(C)cc1Cc1c(-c3noc(C4(O)CC4)n3)ncn1-2 [Compound 363] |  | Ki (α5β3γ2 GABAA R; [1]): < 100 nM
Cn1cc2c(n1)-c1cc(Cl)ccc1-n1cnc(-c3nc(CN4CCCC4=O)co3)c1C2 [Compound 364] | < 100 nM | 
CC1(c2nc(-c3ncn4c3Cc3cn(CC5CCCO5)nc3-c3cc(Cl)ccc3-4)no2)CCOCC1 (stereo not shown) [Compound 365] | < 100 nM | 
COc1ccc2c(c1)-c1nn(C)cc1Cc1c(-c3noc(CC4COC4)n3)ncn1-2 [Compound 366] | < 100 nM | 
COC(C)(C)c1noc(-c2ncn3c2Cc2cn(CC4CCOC4)nc2-c2cc(Cl)ccc2-3)n1 (stereo not shown) [Compound 367] | < 100 nM | 
COc1ccc2c(c1)-c1nn(C)cc1Cc1c(-c3noc(CN4CCCC4=O)n3)ncn1-2 [Compound 368] | 100 to 1000 nM | 
COc1ccc2c(c1)-c1nn(C)cc1Cc1c(-c3noc(CCN4CCCC4=O)n3)ncn1-2 [Compound 369] | < 100 nM | 
COc1ccc2c(c1)-c1nn(C)cc1Cc1c(-c3noc(C4(OC(C)C)CC4)n3)ncn1-2 [Compound 370] | < 100 nM | 
Cn1cc2c(n1)-c1cc(Cl)ccc1-n1cnc(-c3noc(Cn4cccc4)n3)c1C2 [Compound 371] | < 100 nM | 
Cn1cc2c(n1)-c1cc(Cl)ccc1-n1cnc(-c3noc(Cn4cccn4)n3)c1C2 [Compound 372] | < 100 nM | 
Cn1cc2c(n1)-c1cc(Cl)ccc1-n1cnc(-c3noc(Cn4ccnc4)n3)c1C2 [Compound 373] | < 100 nM | 
COc1ccc2c(c1)-c1nn(CC3CCOC3)cc1Cc1c(-c3noc(C(C)(C)OC)n3)ncn1-2 (stereo not shown) [Compound 374] | < 100 nM | 
COc1ccc2c(c1)-c1c(cnn1CC1CCOC1)Cc1c(-c3noc(C(C)(C)OC)n3)ncn1-2 (stereo not shown) [Compound 375] | < 100 nM | 
COc1ccc2c(c1)-c1nn(C)cc1Cc1c(-c3noc(C(C)(C)CO)n3)ncn1-2 [Compound 376] | < 100 nM | 
COCC(C)(C)c1nc(-c2ncn3c2Cc2cn(C)nc2-c2cc(OC)ccc2-3)no1 [Compound 377] | < 100 nM | 
COc1ccc2c(c1)-c1nn(C)cc1Cc1c(-c3nc(CN(C)C(C)=O)co3)ncn1-2 [Compound 378] | 100 to 1000 nM | 
COc1ccc2c(c1)-c1nn(C)cc1Cc1c(-c3nc(CN4CCCC4=O)co3)ncn1-2 [Compound 379] | < 100 nM | 
COc1ccc2c(c1)-c1nn(C)cc1Cc1c(-c3nc(CN(C(C)C)C(C)C)co3)ncn1-2 [Compound 380] | < 100 nM | 
COc1ccc2c(c1)-c1nn(C)cc1Cc1c(-c3nc(CN(C(C)=O)C(C)C)co3)ncn1-2 [Compound 381] |  | Ki (α5β3γ2 GABAA R; [1]): < 100 nM
Cn1cc2c(n1)-c1cc(Cl)ccc1-n1cnc(-c3noc(CN4CCCC4=O)n3)c1C2 [Compound 382] | < 100 nM | 
Cn1cc2c(n1)-c1cc(Cl)ccc1-n1cnc(-c3noc(CCN4CCCC4=O)n3)c1C2 [Compound 383] |  | Ki (α5β3γ2 GABAA R; [1]): < 100 nM
COc1ccc2c(c1)-c1nn(C)cc1Cc1c(-c3noc(C4(O)CCCC4)n3)ncn1-2 [Compound 384] | < 100 nM | 
Cn1cc2c(n1)-c1cc(Cl)ccc1-n1cnc(-c3noc(CCN4CCCC4)n3)c1C2 [Compound 385] | < 100 nM | 
CC(=O)N(C)Cc1noc(-c2ncn3c2Cc2cn(C)nc2-c2cc(Cl)ccc2-3)n1 [Compound 386] |  | Ki (α5β3γ2 GABAA R; [1]): < 100 nM
COCCc1nc(-c2ncn3c2Cc2cn(C)nc2-c2cc(Cl)ccc2-3)no1 [Compound 387] | < 100 nM | 
COc1ccc2c(c1)-c1nn(C)cc1Cc1c(-c3noc(C(C)(C)O)n3)ncn1-2 [Compound 388] | < 100 nM | 
